According to US20230340011A1 (Asteroid Therapeutics, priority 2022, published 2023):

Molecular target: LXRβ (Homo sapiens (Human), UniProt P55055)
Experiment: In vitro assay LXRβ: PathHunter NHR CHO cells, LXRβ / Steroid Receptor Co-activator Peptide enzyme fragment complementation
Assay type: cell-based
Conditions: PathHunter NHR CHO cells, full-length human LXRβ and SRCP, chemiluminescent signal; read-out: LXRβ PPI
Method: PathHunter NHR CHO cells stably transfected with tagged full-length human LXRβ and a nuclear fusion protein containing Steroid Receptor Co-activator Peptide (SRCP). The full-length human LXRβ was tagged with the ProLink™ component of the DiscoverX Enzyme Fragment Complementation (EFC) system and the SRCP domain is fused to the enzyme acceptor component (EA) expressed in the nucleus. Cells were seeded in a total volume of 20 μL into white walled, 384-well microplates and incubated at 37° C. overnight prior to testing. Assay media contained charcoal-dextran filtered serum to reduce the level of hormones present. Final assay vehicle concentration was 1%. […] Microplates were read following signal generation with a PerkinElmer Envision instrument for chemiluminescent signal detection.

Chain of LXRβ (P55055 whole entry, the tested form may be a part): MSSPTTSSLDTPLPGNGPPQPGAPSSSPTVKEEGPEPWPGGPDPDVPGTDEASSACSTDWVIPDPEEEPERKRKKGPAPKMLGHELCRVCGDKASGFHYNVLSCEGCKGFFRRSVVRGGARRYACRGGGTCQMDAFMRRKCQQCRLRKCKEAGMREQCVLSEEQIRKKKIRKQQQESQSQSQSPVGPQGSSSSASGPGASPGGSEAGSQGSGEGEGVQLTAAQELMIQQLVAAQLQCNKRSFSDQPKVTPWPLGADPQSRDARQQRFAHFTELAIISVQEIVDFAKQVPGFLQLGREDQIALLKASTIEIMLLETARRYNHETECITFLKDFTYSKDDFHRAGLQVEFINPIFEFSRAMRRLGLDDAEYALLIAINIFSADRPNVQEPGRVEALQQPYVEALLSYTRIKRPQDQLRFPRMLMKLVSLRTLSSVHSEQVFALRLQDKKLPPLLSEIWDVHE

Compound | EC50 [µM]
C[C@H](CCC(=O)N(C)C)[C@H]1CC[C@H]2[C@@H]3CC=C4C[C@@H](O)C[C@H](O)[C@]4(C)[C@H]3CC[C@]12C [Example 123, (R)-4-((1S,3R,8S,9S,10R,13R,14S,17R)-1,3-dihydroxy-10,13-dimethyl-2,3,4,7,8,9,10,11,12,13,14,15,16,17-tetradecahydro-1H-cyclopenta[a]phenanthren-17-yl)-N,N-dimethylpentanamide] | 1 to 10
C[C@H](CCC(=O)N1CC(C)(C)[C@@H]2COC[C@@H]21)[C@H]1CC[C@H]2[C@@H]3CC=C4C[C@@H](O)CC[C@]4(C)[C@H]3CC[C@]12C [Example 138, (4R)-1-(3,3-dimethylhexahydro-1H-furo[3,4-b]pyrrol-1-yl)-4-((3S,8S,9S,10R,13R,14S,17R)-3-hydroxy-10,13-dimethyl-2,3,4,7,8,9,10,11,12,13,14,15,16,17-tetradecahydro-1H-cyclopenta[a]phenanthren-17-yl)pentan-1-one] | 0.25 to 1
CON(C)C(=O)[C@H](C)C[C@@H](C)[C@H]1CC[C@H]2[C@@H]3CC=C4C[C@@H](O)CC[C@]4(C)[C@H]3CC[C@]12C [Example 141, (2R,4R)-4-[(1R,3aS,3bS,7S,9aR,9bS,11aR)-7-hydroxy-9a,11a-dimethyl-2,3,3a,3b,4,6,7,8,9,9a,9b,10,11,11a-tetradecahydro-1H-cyclopenta[a]phenanthren-1-yl]-N-methoxy-N,2-dimethylpentanamide] | > 10
C[C@H](OC(=O)CN(C)C)[C@H]1CC[C@H]2[C@@H]3CC=C4C[C@@H](O)CC[C@]4(C)[C@H]3CC[C@]12C [Example 143, (S)-1-((3S,8S,9S,10R,13S,14S,17S)-3-hydroxy-10,13-dimethyl-2,3,4,7,8,9,10,11,12,13,14,15,16,17-tetradecahydro-1H-cyclopenta[a]phenanthren-17-yl)ethyl dimethylglycinate] | > 10
C[C@H](OC(=O)C(N)=O)[C@H]1CC[C@H]2[C@@H]3CC=C4C[C@@H](O)CC[C@]4(C)[C@H]3CC[C@]12C [Example 144, (S)-1-((3S,8S,9S,10R,13S,14S,17S)-3-hydroxy-10,13-dimethyl-2,3,4,7,8,9,10,11,12,13,14,15,16,17-tetradecahydro-1H-cyclopenta[a]phenanthren-17-yl)ethyl 2-amino-2-oxoacetate] | > 10
CNC(=O)C(=O)O[C@@H](C)[C@H]1CC[C@H]2[C@@H]3CC=C4C[C@@H](O)CC[C@]4(C)[C@H]3CC[C@]12C [Example 145, (S)-1-((3S,8S,9S,10R,13S,14S,17S)-3-hydroxy-10,13-dimethyl-2,3,4,7,8,9,10,11,12,13,14,15,16,17-tetradecahydro-1H-cyclopenta[a]phenanthren-17-yl)ethyl 2-(methylamino)-2-oxoacetate] | > 10
C[C@H](CCc1ccnnc1)[C@H]1CC[C@H]2[C@@H]3CC=C4C[C@@H](O)CC[C@]4(C)[C@H]3CC[C@]12C [Example 170, (1R,3aS,3bS,7S,9aR,9bS,11aR)-9a,11a-dimethyl-1-[(2R)-4-(pyridazin-4-yl)butan-2-yl]-1H,2H,3H,3aH,3bH,4H,6H,7H,8H,9H,9aH,9bH,10H,11H,11aH-cyclopenta[a]phenanthren-7-ol] | > 10
C[C@H](CCC(=O)N1CCN(c2cnn(C)c2)CC1)[C@H]1CC[C@H]2[C@@H]3CC=C4C[C@@H](O)CC[C@]4(C)[C@H]3CC[C@]12C [Example 214, (R)-4-((3S,8S,9S,10R,13R,14S,17R)-3-hydroxy-10,13-dimethyl-2,3,4,7,8,9,10,11,12,13,14,15,16,17-tetradecahydro-1H-cyclopenta[a]phenanthren-17-yl)-1-(4-(1-methyl-1H-pyrazol-4-yl)piperazin-1-yl)pentan-1-one] | > 10
C[C@H](CCC(=O)N1CC[C@H](Oc2ccncn2)C1)[C@H]1CC[C@H]2[C@@H]3CC=C4C[C@@H](O)CC[C@]4(C)[C@H]3CC[C@]12C [Example 216, (4R)-4-[(1R,3aS,3bS,7S,9aR,9bS,11aR)-7-hydroxy-9a,11a-dimethyl-1H,2H,3H,3aH,3bH,4H,6H,7H,8H,9H,9aH,9bH,10H,11H,11aH-cyclopenta[a]phenanthren-1-yl]-1-[(3S)-3-(pyrimidin-4-yloxy)pyrrolidin-1-yl]pentan-1-one] | > 10
C[C@H](CCC(=O)N1CCC[C@@H](Oc2ccncn2)C1)[C@H]1CC[C@H]2[C@@H]3CC=C4C[C@@H](O)CC[C@]4(C)[C@H]3CC[C@]12C [Example 217, (4R)-4-[(1R,3aS,3bS,7S,9aR,9bS,11aR)-7-hydroxy-9a,11a-dimethyl-1H,2H,3H,3aH,3bH,4H,6H,7H,8H,9H,9aH,9bH,10H,11H,11aH-cyclopenta[a]phenanthren-1-yl]-1-[(3R)-3-(pyrimidin-4-yloxy)piperidin-1-yl]pentan-1-one] | > 10
C[C@H](CCC(=O)N1CCC[C@H](Oc2ccncn2)C1)[C@H]1CC[C@H]2[C@@H]3CC=C4C[C@@H](O)CC[C@]4(C)[C@H]3CC[C@]12C [Example 218, (R)-4-((3S,8S,9S,10R,13R,14S,17R)-3-hydroxy-10,13-dimethyl-2,3,4,7,8,9,10,11,12,13,14,15,16,17-tetradecahydro-1H-cyclopenta[a]phenanthren-17-yl)-1-((S)-3-(pyrimidin-4-yloxy)piperidin-1-yl)pentan-1-one] | 0.25 to 1
C[C@H](CCC(=O)N1CCC(Oc2cccnc2)CC1)[C@H]1CC[C@H]2[C@@H]3CC=C4C[C@@H](O)CC[C@]4(C)[C@H]3CC[C@]12C [Example 219, (R)-4-((3S,8S,9S,10R,13R,14S,17R)-3-hydroxy-10,13-dimethyl-2,3,4,7,8,9,10,11,12,13,14,15,16,17-tetradecahydro-1H-cyclopenta[a]phenanthren-17-yl)-1-(4-(pyridin-3-yloxy)piperidin-1-yl)pentan-1-one] | > 10
C[C@H](CCC(=O)N1CCC(Oc2cnccn2)CC1)[C@H]1CC[C@H]2[C@@H]3CC=C4C[C@@H](O)CC[C@]4(C)[C@H]3CC[C@]12C [Example 220, (R)-4-((3S,8S,9S,10R,13R,14S,17R)-3-hydroxy-10,13-dimethyl-2,3,4,7,8,9,10,11,12,13,14,15,16,17-tetradecahydro-1H-cyclopenta[a]phenanthren-17-yl)-1-(4-(pyrazin-2-yloxy)piperidin-1-yl)pentan-1-one] | 1 to 10
C[C@H](CCC(=O)N1CCC(Oc2ccncn2)CC1)[C@H]1CC[C@H]2[C@@H]3CC=C4C[C@@H](O)CC[C@]4(C)[C@H]3CC[C@]12C [Example 221, (4R)-4-[(1R,3aS,3bS,7S,9aR,9bS,11aR)-7-hydroxy-9a,11a-dimethyl-1H,2H,3H,3aH,3bH,4H,6H,7H,8H,9H,9aH,9bH,10H,11H,11aH-cyclopenta[a]phenanthren-1-yl]-1-[4-(pyrimidin-4-yloxy)piperidin-1-yl]pentan-1-one] | 1 to 10
C[C@H](CCC(=O)N1CCN(c2cncnc2)CC1)[C@H]1CC[C@H]2[C@@H]3CC=C4C[C@@H](O)CC[C@]4(C)[C@H]3CC[C@]12C [Example 222, (R)-4-((3S,8S,9S,10R,13R,14S,17R)-3-hydroxy-10,13-dimethyl-2,3,4,7,8,9,10,11,12,13,14,15,16,17-tetradecahydro-1H-cyclopenta[a]phenanthren-17-yl)-1-(4-(pyrimidin-5-yl)piperazin-1-yl)pentan-1-one] | > 10
C[C@H](CCC(=O)N1CCN(Cc2cnn(C)c2)CC1)[C@H]1CC[C@H]2[C@@H]3CC=C4C[C@@H](O)CC[C@]4(C)[C@H]3CC[C@]12C [Example 223, (R)-4-((3S,8S,9S,10R,13R,14S,17R)-3-hydroxy-10,13-dimethyl-2,3,4,7,8,9,10,11,12,13,14,15,16,17-tetradecahydro-1H-cyclopenta[a]phenanthren-17-yl)-1-(4-((1-methyl-1H-pyrazol-4-yl)methyl)piperazin-1-yl)pentan-1-one] | > 10
C[C@H](CCC(=O)N1CCN(Cc2cncnc2)CC1)[C@H]1CC[C@H]2[C@@H]3CC=C4C[C@@H](O)CC[C@]4(C)[C@H]3CC[C@]12C [Example 224, (4R)-4-[(1R,3aS,3bS,7S,9aR,9bS,11aR)-7-hydroxy-9a,11a-dimethyl-1H,2H,3H,3aH,3bH,4H,6H,7H,8H,9H,9aH,9bH,10H,11H,11aH-cyclopenta[a]phenanthren-1-yl]-1-{4-[(pyrimidin-5-yl)methyl]piperazin-1-yl}pentan-1-one] | > 10
Cc1nnc(N2CCN(C(=O)CC[C@@H](C)[C@H]3CC[C@H]4[C@@H]5CC=C6C[C@@H](O)CC[C@]6(C)[C@H]5CC[C@]34C)CC2)s1 [Example 225, (R)-4-((3S,8S,9S,10R,13R,14S,17R)-3-hydroxy-10,13-dimethyl-2,3,4,7,8,9,10,11,12,13,14,15,16,17-tetradecahydro-1H-cyclopenta[a]phenanthren-17-yl)-1-(4-(5-methyl-1,3,4-thiadiazol-2-yl)piperazin-1-yl)pentan-1-one] | > 10
C[C@H](CCC(=O)N1CCN(c2ccnn2C)CC1)[C@H]1CC[C@H]2[C@@H]3CC=C4C[C@@H](O)CC[C@]4(C)[C@H]3CC[C@]12C [Example 226, (R)-4-((3S,8S,9S,10R,13R,14S,17R)-3-hydroxy-10,13-dimethyl-2,3,4,7,8,9,10,11,12,13,14,15,16,17-tetradecahydro-1H-cyclopenta[a]phenanthren-17-yl)-1-(4-(1-methyl-1H-pyrazol-5-yl)piperazin-1-yl)pentan-1-one] | > 10
